Measurements taken from PubChem BioAssay AID504726 (Broad Institute, 2011).
The source made the active and inactive calls.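 The calls were made as follows: active = fitted half-maximal concentration for a cytotoxic signal drop no higher than ten times the top valid dose tested; inconclusive = flat curve between -70 and -30 percent, or an unreliable fit; inactive = flat within 30 percent, signal rise, or potency beyond limit.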

Assay: viability loss in HeLa cells – cell-based, 24 h, cherry-picked samples, cytotoxicity control, dose response (AID 504726);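 also: 0% = DMSO neutral controls and -100% = mitoxantrone positive controls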
Settings: HeLa viability, CellTiter-Glo ATP luminescence, 24 h; at 35 µM (top of the series)

Row | Structure (SMILES) | activity change, negative = cytotoxicity
1 | O=C(O)c1[nH]c2ccccc2c1C(c1cc(Cl)cc([N+](=O)[O-])c1O)c1c(C(=O)O)[nH]c2ccccc12 | -6.4% (inactive)
2 | CCOC(=O)CCCn1c(C)nc(=O)c(-c2ccccc2)c1C | 4.75% (inactive)
3 | CCOc1ccccc1N1CCN(C(=O)c2ccc3nc(N)sc3c2)CC1 | -19.1% (inactive)
4 | CN(N=Nc1ccc([N+](=O)[O-])cc1)c1ccccc1 | -18.3% (inactive)
5 | O=C(c1ccccc1)c1ccc(O)cc1O | -20.5% (inactive)
6 | O=C(CN(Cc1ccccc1F)C(=O)c1csnn1)NCc1ccc2c(c1)OCO2 | -9.28% (inactive)
7 | CCOC(=O)CN1NC2(CCCCCC2)NC1=S | -1.79% (inactive)
8 | CCN(C(=O)COC(=O)c1nc2nc(C)cc(C)n2n1)C1CCCCC1 | 5.26% (inactive)
9 | CCOC(=O)N1CCN(C(=S)NC(=O)c2cccc(OC)c2)CC1 | -2.14% (inactive)
10 | CC(C)CC(=O)Nc1ccc(S(=O)(=O)N2CC3CC(C2)c2cccc(=O)n2C3)cc1 (stereo not drawn) | 1.91% (inactive)
11 | Cc1noc(C)c1C(=O)N1CCN(c2ccc(OCc3ccccc3)cc2)CC1 | -3.67% (inactive)
12 | CC(C(=O)O)N1C(=O)/C(=C/C=C/c2ccco2)SC1=S (stereo not drawn) | -13.5% (inactive)
13 | COc1ccc(NS(=O)(=O)c2ccc(C)c(C(=O)N(C)Cc3ccc(OC)cc3OC)c2)cc1 | -7.58% (inactive)
14 | Cc1ccc2c(c1)nnn2C1CCN(C(=O)c2cccs2)CC1 | -7.39% (inactive)
15 | Cc1cc2nc3c(=O)n(C4CCCCC4)c(=O)[nH]c3nc2cc1N | 4.62% (inactive)
16 | COc1ccc(Cl)cc1C(=O)NNC(=O)c1cc2ccccc2o1 | -3.35% (inactive)
17 | Cc1cc(/C=N/Nc2ccc([N+](=O)[O-])cn2)c(C)n1-c1cccc(C(=O)O)c1 | -4.63% (inactive)
18 | CCOC(=O)[C@H]1[C@H]2COc3cc(OC)ccc3[C@@H]2N2C(=O)CN(Cc3ccc(OC)cc3)C(=O)[C@@]12C | -9.01% (inactive)
19 | CC(C)(CS(=O)(=O)[O-])NC(=O)CC[N+](C)(C)CCO | 2.35% (inactive)
20 | COc1c2c(nc3occc13)C(CCC(C)(C)O)(OC)C(O)CC2 (stereo not drawn) | -4.6% (inactive)
21 | C=C1c2cccc(O)c2C(O)=C2C(=O)[C@]3(O)C(O)=C(C(N)=O)C(=O)[C@@H](N(C)C)[C@@H]3[C@@H](O)[C@H]12 | -2.76% (inactive)

Row | Structure (SMILES) | activity change, negative = cytotoxicity
22 | COC(=O)Cn1c(=NC(=O)c2sc3ccccc3c2Cl)sc2cc(S(N)(=O)=O)ccc21 | -2.51% (inactive)
23 | CC(Cc1ccccc1)NC(=O)NC(C)Cc1ccccc1 (stereo not drawn) | -7.16% (inactive)
24 | Cc1ccc(OCC(=O)NC(=S)Nc2cccc(NC(=O)c3ccc(Cl)cc3Cl)c2)cc1 | -4.71% (inactive)
25 | CCCCN(C(=O)C(C)Oc1ccc(Br)cc1)c1c(N)n(CC(C)C)c(=O)[nH]c1=O (stereo not drawn) | 3.21% (inactive)
26 | Cc1ccc(NC(=O)CN2C(=O)N/C(=C/c3cccn3-c3ccc(C(=O)O)cc3)C2=O)cc1 | -4.45% (inactive)
27 | O=[N+]([O-])c1cccc(CSc2nc3ccccc3[nH]2)c1 | -8.29% (inactive)
28 | O=c1nc(N2CCOCC2)ccn1-c1nc(-c2ccccc2)sc1-c1ccccc1 | -8.43% (inactive)
29 | COC(=O)c1ccccc1NC(=O)CCS(=O)(=O)c1ccc(Br)cc1 | 10.1% (inactive)
30 | Cc1ccsc1/C=N/NC(=O)Cc1ccc(Cl)cc1 | 1.7% (inactive)
31 | COc1cccc(NC(=O)CN(C)C(=O)c2cc3ccccc3cc2OC)c1 | 6.23% (inactive)
32 | O=C(O)CCCCCn1c(SCC(=O)c2ccc(O)c(O)c2)nc2ccsc2c1=O | -16.5% (inactive)
33 | CCCc1nnc(NC(=O)CCC(=O)NCc2ccc(OC)cc2)s1 | -1.54% (inactive)
34 | O=C(NCCCO)c1ccc2nc(-c3ccco3)c(-c3ccco3)nc2c1 | -12.3% (inactive)
35 | COc1ccc(OC)c(N2C(=O)NC(=O)/C(=C\c3ccc([N+](=O)[O-])s3)C2=O)c1 | -3.62% (inactive)
36 | O=C(O)CC(C(=O)O)N1C(=O)/C(=C/C=C/c2ccco2)SC1=S (stereo not drawn) | -8.39% (inactive)
37 | CCN(CC)C(=O)C1c2ccccc2Oc2ccccc21 | -12.1% (inactive)
38 | Cc1[nH][nH]c(=O)c1C(c1ccc(-c2ccc(Cl)c(C(=O)O)c2)o1)c1c(C)[nH][nH]c1=O | -3.88% (inactive)
39 | CSc1nc(SC(C)C(=O)O)c2c3c(sc2n1)COC(C)(C)C3 (stereo not drawn) | -9.35% (inactive)
40 | COCCN(C(=O)CN1CCCc2ccccc21)c1c(N)n(Cc2ccccc2)c(=O)[nH]c1=O | 3.65% (inactive)
41 | Nc1ccccc1C(=O)N1O[C@@H]2C=C[C@H]1CC2 | -9.71% (inactive)
42 | N#CC1=C(N)Oc2ccc3ccc(O)cc3c2C1c1ccsc1 (stereo not drawn) | 5.49% (inactive)

Row | Structure (SMILES) | activity change, negative = cytotoxicity
43 | CC(/C=C1\SC(=S)N(CCCC(=O)Nc2ccc(C(=O)O)cc2)C1=O)=C\c1ccccc1 | 3.31% (inactive)
44 | O=C(NCC1CCCO1)c1cccc(S(=O)(=O)N(Cc2ccccc2)c2ccccc2)c1 (stereo not drawn) | -6.52% (inactive)
45 | COc1ccc(OCC(=O)N2CCN(c3cccc(C(F)(F)F)c3)CC2)cc1 | -8.78% (inactive)
46 | Cc1ccc(S(=O)(=O)Nc2ccc(Br)cc2C(NCC(=O)O)c2ccccc2)cc1 (stereo not drawn) | 0.422% (inactive)
47 | CCc1noc(C)c1C(=O)N1CCCC(N2CCN(c3ccc(F)cc3)CC2)C1 (stereo not drawn) | -1.12% (inactive)
48 | Nc1cccc2c(O)cc(S(=O)(=O)O)cc12 | -1.83% (inactive)
49 | NC(=O)c1ccc(NC(=O)C2COc3ccccc3O2)cc1 (stereo not drawn) | -1.55% (inactive)
50 | Cc1n[nH]c(C)c1N1C(=O)c2cccc3c(N4CCCCCC4)ccc(c23)C1=O | -15.8% (inactive)
51 | NC(=S)COc1ccccc1 | -7.95% (inactive)
52 | CC(C)Cc1nc(SCC(=O)Nc2nnc(CC(C)C)s2)n[nH]1 | -15% (inactive)
53 | CC(C)=C1C2C=CC1C(C(=O)Nc1cc(C)ccc1C)C2C(=O)O (stereo not drawn) | -4.56% (inactive)
54 | CCCCc1ccc(C(=O)O)nc1 | -11.4% (inactive)
55 | CC[C@H](C)[C@H](NC(N)=O)C(=O)Nc1ccc(NC(C)=O)cc1 | 6.72% (inactive)
56 | O=C(O)c1cccc(-n2cccc2/C=C2/NC(=O)N(c3ccc(Cl)cc3)C2=O)c1 | 0.035% (inactive)
57 | NC1=NC[C@@H](Cc2ccc(O)cc2)N1CCc1cc(C(F)(F)F)cc(C(F)(F)F)c1 | -9.29% (inactive)
58 | Cc1c(C)n(CCC(=O)O)c2ccccc12 | -6.21% (inactive)
59 | COc1ccc(N(CC(=O)NCc2ccc3c(c2)OCO3)C(=O)c2csnn2)cc1 | 3.04% (inactive)
60 | COc1ccc(-c2n[nH]c(=S)n2-c2ccc(C)cc2)cc1 | 4.29% (inactive)
61 | CN1CC=C2C(C#N)=C(N)C(C#N)(C#N)[C@H](c3ccoc3)[C@H]2C1 | 0.209% (inactive)
62 | CC(=O)Nc1ccc(S(=O)(=O)Nc2nc3ccccc3nc2Nc2ccc(C(=O)O)c(O)c2)cc1 | -13.1% (inactive)
63 | O=C(/C=N/NC(=O)c1ccc(Cl)cc1Cl)c1ccccc1 | 1.59% (inactive)

Row | Structure (SMILES) | activity change, negative = cytotoxicity
64 | CCC(C)[C@H](NC(=O)[C@@H]1Cc2ccccc2CN1)C(=O)Nc1ccc2c(c1)OCO2 (stereo partly drawn) | -9.19% (inactive)
65 | CCOc1ccc(S(=O)(=O)N(C)c2ccc(OCC(=O)NC3=NCCS3)cc2)cc1 | -12.3% (inactive)
66 | COc1cccc(-c2cc(C(=O)N3CCN(S(=O)(=O)c4ccccc4)CC3)[nH]n2)c1 | -17.3% (inactive)
67 | CCOc1ccc(/C=C2\CCCc3c2nc2ccccc2c3C(=O)O)cc1OC | -5% (inactive)
68 | CN1CCN(CCCNC(=O)c2cc3c(-c4ccc(Cl)cc4)nn(C)c3s2)CC1 | -18.2% (inactive)
69 | COc1cc(CN2CC(=O)N(c3cc(Cl)ccc3C)C2=S)cc(OC)c1OC | -7.61% (inactive)
70 | CCOC(=O)c1sc(NC(=O)CSC(=S)N2CCN(C)CC2)nc1C | -7.44% (inactive)
71 | O=C(Cn1ncc(N2CCCC2)c(Cl)c1=O)c1ccc(Cl)cc1 | 7.35% (inactive)
72 | COc1ccc(-c2nc(C(=O)O)cs2)cc1OC | -5.71% (inactive)
73 | Cc1cccc(C)c1NC(=O)CSc1nnc(-c2ccco2)c(-c2ccco2)n1 | -6.45% (inactive)
74 | Nc1nc(C(F)(F)F)cc(=O)[nH]1 | -5.29% (inactive)
75 | NNC(=O)C1C(O)CCC2CN3CCc4c([nH]c5ccccc45)C3CC21 (stereo not drawn) | -12.3% (inactive)
76 | COc1cc2c(cc1OC)-c1cc3ccc4c(c3c[n+]1CC2)OCO4 | -12.1% (inactive)
77 | C=CCNC(=S)N1CCN(S(=O)(=O)c2ccc(C)cc2)CC1 | -6.85% (inactive)
78 | CN(c1ccccc1)S(=O)(=O)c1cccc(NS(=O)(=O)c2cccc(C(=O)O)c2)c1 | 3.74% (inactive)
79 | Fc1ccc(-c2cc(C(F)(F)F)nc(-n3cc(Cl)cn3)n2)cc1 | -12% (inactive)
80 | COc1ccc(CCNC(=O)CNC(=O)Cn2ccc3ccccc3c2=O)cc1OC | 2.19% (inactive)
81 | Cc1cccc(COc2ccc(/C=N/NC(=O)c3nnn(-c4nonc4N)c3COc3ccc(F)cc3)cc2)c1 | -4.08% (inactive)
82 | Nc1ccc2c3c(cccc13)C(=O)N(c1ccccc1)C2=O | 19% (inactive)
83 | Cc1cc(=O)oc2cc(OCC(=O)N3CCN(Cc4ccc5c(c4)OCO5)CC3)ccc12 | -5.71% (inactive)
